Results on four compounds are retold here after patent publication EP0854192A2, “Production of human cathepsin and its use” (Takeda Chemical Industries, Ltd., priority 1992, dated 1994).

For this experiment, the target named is human cathepsin L (recombinant, of human renal origin cDNA, expressed in COS-7 cells, concentrated culture supernatant) (Homo sapiens, UniProt P07711). As to the kind of experiment: Cathepsin L enzyme activity assay with synthetic substrate Z-Phe-Arg-NMec in the presence of enzyme inhibitors (method of Barrett and Kirschke). The format is biochemical. The settings on record: 30°C, 10 minutes; for remaining activity at 1 µM: 1 µM inhibitor added after enzyme activation. How it is done: The culture supernatant of COS-7 transformant prepared in Example 2 was concentrated about 20-fold with Centricut (produced by Kurabo Industries, Ltd., cut-off molecular weight = 10000) and assayed for cathepsin L enzyme activity, according to the method of A. J. Barrett and H. Kirschke [Methods in Enzymology 80, 535 (1981)]. To 25 µl of this concentrated culture supernatant were added 25 µl of 1 M sodium formate buffer (pH 3.0) and 10 µl of 0.1 M DTT, and water was added for a final volume of 250 µl, followed by incubation at 37°C for 30 seconds. After 125 µl of activating buffer (340 mM sodium acetate, 60 mM acetic acid, 4 mM EDTA disodium, pH 5.5) was added, the mixture was kept standing at 30°C for 1 minute for activation. The enzyme reaction was carried out at 30°C for 10 minutes in the presence of 125 µl of a synthetic substrate solution [20 µM Z-Phe-Arg-NMec (Z: benzyloxycarbonyl-, NMec: -7-(4-methyl)coumarylamide)], and stopped by the addition of 500 µl of a reaction stopper (100 mM sodium monochloroacetate, 30 mM sodium acetate, 70 mM acetic acid, pH 4.3). For a control experiment, a culture supernatant of COS-7 cells not expressing cathepsin L was used as an enzyme solution. After termination of the reaction, 100 µl of the reaction mixture was injected into a 96-well fluoroplate (produced by Labo Systems), and the fluorescence intensity of free 7-amino-4-methylcoumarin was determined at a wavelength of 450 nm (excitation wavelength = 365 nm) using a fluorometer FCA (produced by Baxter). In assessing the effects of the following enzyme inhibitors on the present enzyme activity, the inhibitor was added after the above enzyme activating operation. The enzyme inhibitors used were 10 µM leupeptin (cysteine protease inhibitor), 10 µM (p-amidinophenyl)methanesulfonyl fluoride hydrochloride (APMSF: serine protease inhibitor), 1 µM Z-Phe-Phe-CHN2 (cathepsin L inhibitor, -CHN2: -diazomethane) and 1 µM pepstatin A (aspartic acid protease inhibitor).

Setting [1] is: read-out: enzyme activity in the presence of enzyme inhibitor, in comparison with the inhibitor-free control.

Each structure is given as a SMILES string. Where a SMILES comes first, the peptide text is derived from it. [ ]: non-standard residue; d: D form. The star is where a group is joined. Sta = CC(C)C[C@H](N)[C@@H](O)CC(=O)O; Isovaleryl = CC(C)CC(=O)*; Cbz = O=C(OCc1ccccc1)*; CHN2 = [N-]=[N+]=C*

Sequence of human cathepsin L (recombinant, of human renal origin cDNA, expressed in COS-7 cells, concentrated culture supernatant) (P07711 114-333): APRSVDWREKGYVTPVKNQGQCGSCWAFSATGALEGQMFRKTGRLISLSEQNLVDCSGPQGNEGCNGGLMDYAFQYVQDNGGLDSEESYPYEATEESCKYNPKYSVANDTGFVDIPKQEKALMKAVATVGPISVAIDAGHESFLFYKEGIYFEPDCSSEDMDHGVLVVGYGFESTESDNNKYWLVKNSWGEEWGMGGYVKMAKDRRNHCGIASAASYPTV

Consider `CC(C)CC(=O)N[C@H](C(=O)N[C@H](C(=O)N[C@@H](CC(C)C)[C@@H](O)CC(=O)N[C@@H](C)C(=O)N[C@@H](CC(C)C)[C@@H](O)CC(=O)O)C(C)C)C(C)C` [pepstatin A] (Isovaleryl-VV[Sta]A[Sta]-OH), for which the remaining activity at 1 µM under setting [1] was 99%.
With `CC(=O)N[C@@H](CC(C)C)C(=O)N[C@@H](CC(C)C)C(=O)N[C@H](C=O)CCCNC(=N)N` [leupeptin], the remaining activity at 10 µM (10 µM inhibitor added after enzyme activation, read-out: enzyme activity in the presence of enzyme inhibitor, in comparison with the inhibitor-free control) came to 3.4%.
`Cl.N=C(N)c1ccc(CS(=O)(=O)F)cc1` [APMSF, (p-amidinophenyl)methanesulfonyl fluoride hydrochloride]: the “enzyme activity in the presence of enzyme inhibitor, in comparison with the inhibitor-free control” value (10 µM inhibitor added after enzyme activation, remaining activity) is 79%.
`[N-]=[N+]=CC(=O)[C@H](Cc1ccccc1)NC(=O)[C@H](Cc1ccccc1)NC(=O)OCc1ccccc1` [Z-Phe-Phe-CHN2] (Cbz-Phe-Phe-CHN2): the remaining activity at 1 µM under setting [1] came out at 6.3%.
